Data reported in US20180362543A1, “HIV REPLICATION INHIBITOR” (Shionogi & Co., Ltd., priority 2013, published 2018).

Test system: HIV (HTLV-III B strain)
Assay: HIV replication inhibition assay (MTT, MT-4 cells)
Type: cell-based
Conditions: Human immunodeficiency virus 1, MT4, 96 h, Table A-8 (continuation of Tables A-1 to A-9), four days
In short: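 MT-4 cells (2.5×10^4/well) infected with HTLV-III B stock (60 pfu) in presence of compound, cultured four days at 37 °C. Viability by MTT reduction, formazan read at 560 and 690 nm. EC50 is concentration inhibiting virus-induced cytotoxicity by 50%.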

| EC50 [nM] | Structure (SMILES) |
| --- | --- |
| 3.9 | COc1cnc2c(c1)CN(S(C)(=O)=O)c1c(C)c([C@H](OC(C)(C)C)C(=O)O)c(-c3ccc(C)cc3)c(C)c1-2 [Compound 368] |
| 44 | Cc1c(-c2ccc(Cl)cc2)c([C@H](OC(C)(C)C)C(=O)O)c(C)c2c1-c1ncccc1CN2S(C)(=O)=O [Compound 369] |
| 4.6 | COc1ccc2c(n1)CN(S(C)(=O)=O)c1c(C)c([C@H](OC(C)(C)C)C(=O)O)c(-c3ccc(C)cc3)c(C)c1-2 [Compound 371] |
| 81 | Cc1c(-c2c(C)c3c(c(C)c2[C@H](OC(C)(C)C)C(=O)O)N(S(C)(=O)=O)Cc2cccc(F)c2-3)ccc(Cl)c1O [Compound 372] |
| 63 | COc1ccnc2c1CN(S(C)(=O)=O)c1c(C)c([C@H](OC(C)(C)C)C(=O)O)c(-c3ccc(C)cc3)c(C)c1-2 [Compound 374] |
| 19 | Cc1ccc(-c2c(C)c3c(c(C)c2[C@H](OC2(C)CCC2)C(=O)O)N(S(C)(=O)=O)Cc2cccc(F)c2-3)cc1 [Compound 375] |
| 36 | Cc1c(-c2ccc(Cl)cc2)c([C@H](OC2(C)CCC2)C(=O)O)c(C)c2c1-c1c(F)cccc1CN2S(C)(=O)=O [Compound 378] |
| 2.3 | COc1cc2c(cn1)-c1c(C)c(-c3ccc(Cl)cc3)c([C@H](OC(C)(C)C)C(=O)O)c(C)c1N(S(C)(=O)=O)C2 [Compound 379] |
| 13 | Cc1ccc2c(n1)CN(S(C)(=O)=O)c1c(C)c([C@H](OC(C)(C)C)C(=O)O)c(-c3ccc(Cl)cc3)c(C)c1-2 [Compound 380] |
| 5 | Cc1ccc(-c2c(C)c3c(c(C)c2[C@H](OC(C)(C)C)C(=O)O)N(S(C)(=O)=O)Cc2cccc(F)c2-3)c(O)c1 [Compound 381] |
| 49 | Cc1ccc(-c2c(C)c3c(c(C)c2[C@H](OC(C)(C)C)C(=O)O)N(S(C)(=O)=O)Cc2cc(C)cnc2-3)c(O)c1 [Compound 382] |
| 8.4 | Cc1ccc(-c2c(C)c3c(c(C)c2[C@H](OC(C)(C)C)C(=O)O)N(S(C)(=O)=O)Cc2cc(C)cnc2-3)c(C)c1 [Compound 384] |
| 39 | Cc1ccc(-c2c(C)c3c(c(C)c2[C@H](OC(C)(C)C)C(=O)O)N(S(C)(=O)=O)Cc2cnc(C(F)(F)F)cc2-3)cc1 [Compound 385] |
| 86 | Cc1ccc(-c2c(C)c3c(c(C)c2[C@H](OC(C)(C)C)C(=O)O)N(S(C)(=O)=O)Cc2ccc(N)nc2-3)cc1 [Compound 386] |
| 29 | Cc1ccc(-c2c(C)c3c(c(C)c2[C@H](OC(C)(C)C)C(=O)O)N(S(C)(=O)=O)Cc2nc(C)cc(C)c2-3)cc1 [Compound 388] |
| 67 | COc1nc2c(cc1F)CN(S(C)(=O)=O)c1c(C)c([C@H](OC(C)(C)C)C(=O)O)c(-c3ccc(C)cc3)c(C)c1-2 [Compound 389] |
| 2.2 | Cc1ccc(-c2c(C)c3c(c(C)c2[C@H](OC(C)(C)C)C(=O)O)N(S(C)(=O)=O)Cc2cc(N(C)C)cnc2-3)cc1 [Compound 390] |
| 4.1 | Cc1ccc(-c2c(C)c3c(c(C)c2[C@H](OC(C)(C)C)C(=O)O)N(S(C)(=O)=O)Cc2cc(C(F)(F)F)cnc2-3)cc1 [Compound 391] |
| 31 | Cc1ccc(-c2c(C)c3c(c(C)c2[C@H](OC(C)(C)C)C(=O)O)N(S(C)(=O)=O)Cc2c(C)ccnc2-3)cc1 [Compound 392] |
| 4.7 | COc1cc2c(cn1)-c1c(C)c(-c3ccc(C)cc3C)c([C@H](OC(C)(C)C)C(=O)O)c(C)c1N(S(C)(=O)=O)C2 [Compound 393] |
| 27 | Cc1ccc(-c2c(C)c3c(c(C)c2[C@H](OC(C)(C)C)C(=O)O)N(S(C)(=O)=O)Cc2cccc(F)c2-3)c(CO)c1 [Compound 394] |
| 34 | Cc1ccc(-c2c(C)c3c(c(C)c2[C@H](OC(C)(C)C)C(=O)O)N(S(C)(=O)=O)Cc2ccc4c(c2-3)OCCO4)cc1 [Compound 395] |
| 33 | Cc1ccc(-c2c(C)c3c(c(C)c2[C@H](OC(C)(C)C)C(=O)O)N(S(C)(=O)=O)Cc2ccc(C(F)(F)F)nc2-3)cc1 [Compound 397] |
| 80 | Cc1ccc(-c2c(C)c3c(c(C)c2[C@H](OC(C)(C)C)C(=O)O)N(S(C)(=O)=O)Cc2cc(F)c(N(C)C)nc2-3)cc1 [Compound 398] |

Same assay, conditions: Human immunodeficiency virus 1, MT4, 96 h, Table A-9, four days

| EC50 [nM] | Structure (SMILES) |
| --- | --- |
| 14.6 | Cc1ccc(-c2c(C)c3c(c(C)c2[C@H](OC(C)(C)C)C(=O)O)N(S(C)(=O)=O)Cc2c(F)ncc(F)c2-3)cc1 [Compound 403] |
| < 7.8 | Cc1cnc2c(c1)CN(S(C)(=O)=O)c1c(C)c([C@H](OC(C)(C)C)C(=O)O)c(C3=CCC(C)(C)CC3)c(C)c1-2 [Compound 404] |
| 38 | Cc1cnc2c(c1)CN(S(C)(=O)=O)c1c(C)c([C@H](OC(C)(C)C)C(=O)O)c(-c3ccc(Cl)cc3O)c(C)c1-2 [Compound 406] |
| < 7.8 | Cc1ccc(-c2c(C)c3c(c(C)c2[C@H](OC(C)(C)C)C(=O)O)N(S(C)(=O)=O)Cc2cc(Cl)cnc2-3)cc1 [Compound 407] |
